From ChEMBL document CHEMBL2086335, “Three new 12-carbamoylated streptothricins from Streptomyces sp. I08A 1776” (2012)
≈ marks a conversion by molar mass, not a printed value.

How the values were obtained:
Format in all cases: functional
Morganella morganii = test: Antibacterial activity against multidrug-resistant Morganella morganii 07-09 by microbroth dilution method
[1] = system: Mycolicibacterium smegmatis; test: Antibacterial activity against Mycobacterium smegmatis MC2 155 by microbroth dilution method; conditions: str. MC2 155
Bacillus subtilis = test: Antibacterial activity against Bacillus subtilis ATCC 6633 by microbroth dilution method
Enterococcus faecalis = test: Antibacterial activity against Enterococcus faecalis ATCC 29212 by microbroth dilution method
Staphylococcus aureus = test: Antibacterial activity against Staphylococcus aureus ATCC 25923 by microbroth dilution method
Pseudomonas aeruginosa = test: Antibacterial activity against Pseudomonas aeruginosa ATCC 27853 by microbroth dilution method
Candida albicans = test: Antifungal activity against Candida albicans ATCC 10231 by microbroth dilution method
Escherichia coli = test: Antibacterial activity against Escherichia coli ATCC 25922 by microbroth dilution method
[2] = system: Mycobacterium tuberculosis; test: Antibacterial activity against Mycobacterium tuberculosis H37Rv by microbroth dilution method

SMILES | MIC (Morganella morganii) | MIC [1] | MIC (Bacillus subtilis) | MIC (Enterococcus faecalis) | MIC (Staphylococcus aureus) | MIC (Pseudomonas aeruginosa) | MIC (Candida albicans) | MIC (Escherichia coli) | MIC [2]
NCCC[C@H](N)CC(=O)NCCC[C@H](N)CC(=O)N[C@@H]1[C@H](O)[C@@H](O)[C@@H](COC(N)=O)O[C@H]1/N=C1\N[C@@H]2[C@H](O)CNC(=O)[C@H]2N1 | > 256 µg/mL | 64 µg/mL (≈ 101 µM) | 16 µg/mL (≈ 25.4 µM) | > 256 µg/mL | > 256 µg/mL | > 256 µg/mL | 32 µg/mL (≈ 50.7 µM) | > 256 µg/mL | 16 µg/mL (≈ 25.4 µM)
CC(=O)N[C@@H](CCCNC(=O)C[C@@H](N)CCCNC(=O)C[C@@H](N)CCCN)CC(=O)N[C@@H]1[C@H](O)[C@@H](O)[C@@H](COC(N)=O)O[C@H]1/N=C1\N[C@H]([C@H](O)CN)[C@@H](C(=O)O)N1 | > 256 µg/mL | > 256 µg/mL | > 256 µg/mL | > 256 µg/mL | > 256 µg/mL | > 256 µg/mL | > 256 µg/mL | > 256 µg/mL | > 256 µg/mL
C[C@H]1COc2c(N3CCN(C)CC3)c(F)cc3c(=O)c(C(=O)O)cn1c23.C[C@H]1COc2c(N3CCN(C)CC3)c(F)cc3c(=O)c(C(=O)O)cn1c23.O [LEVOFLOXACIN] | 16 µg/mL | 1 µg/mL | 0.12 µg/mL | 0.5 µg/mL | 0.12 µg/mL | 0.25 µg/mL | > 256 µg/mL | – | 0.5 µg/mL
CC(=O)N[C@@H](CCCNC(=O)C[C@@H](N)CCCN)CC(=O)N[C@@H]1[C@H](O)[C@@H](O)[C@@H](COC(N)=O)O[C@H]1/N=C1\N[C@@H]2[C@H](O)CNC(=O)[C@H]2N1 | > 256 µg/mL | > 256 µg/mL | 128 µg/mL (≈ 190 µM) | > 256 µg/mL | > 256 µg/mL | > 256 µg/mL | > 256 µg/mL | > 256 µg/mL | > 256 µg/mL
NNC(=O)c1ccncc1 [ISONIAZID] | – | – | – | – | – | – | – | – | 0.0625 µg/mL (≈ 0.456 µM)
CO[C@H]1/C=C/O[C@@]2(C)Oc3c(C)c(O)c4c(O)c(c(/C=N/N5CCN(C)CC5)c(O)c4c3C2=O)NC(=O)/C(C)=C\C=C\[C@H](C)[C@H](O)[C@@H](C)[C@@H](O)[C@@H](C)[C@H](OC(C)=O)[C@@H]1C [RIFAMPIN] | – | – | – | – | – | – | – | – | 0.0625 µg/mL (≈ 0.0759 µM)
NCCC[C@H](N)CC(=O)NCCC[C@H](N)CC(=O)N[C@@H]1[C@H](O)[C@@H](OC(N)=O)[C@@H](CO)O[C@H]1NC1=N[C@@H]2C(=O)NC[C@@H](O)[C@H]2N1 [STREPTOTHRICIN E] | 4 µg/mL (≈ 6.34 µM) | 4 µg/mL (≈ 6.34 µM) | 1 µg/mL (≈ 1.59 µM) | 64 µg/mL (≈ 101 µM) | 4 µg/mL (≈ 6.34 µM) | 64 µg/mL (≈ 101 µM) | 1 µg/mL (≈ 1.59 µM) | 16 µg/mL (≈ 25.4 µM) | 1 µg/mL (≈ 1.59 µM)
CC(=O)N[C@@H](CCCNC(=O)C[C@@H](N)CCCNC(=O)C[C@@H](N)CCCN)CC(=O)N[C@@H]1[C@H](O)[C@@H](OC(N)=O)[C@@H](CO)O[C@H]1/N=C1\N[C@H]([C@H](O)CN)[C@@H](C(=O)O)N1 | > 256 µg/mL | > 256 µg/mL | 64 µg/mL (≈ 78.2 µM) | > 256 µg/mL | > 256 µg/mL | > 256 µg/mL | > 256 µg/mL | 64 µg/mL (≈ 78.2 µM) | > 256 µg/mL
CC(=O)N[C@@H](CCCNC(=O)C[C@@H](N)CCCNC(=O)C[C@@H](N)CCCN)CC(=O)N[C@@H]1[C@H](O)[C@@H](O)[C@@H](COC(N)=O)O[C@H]1/N=C1\N[C@@H]2[C@H](O)CNC(=O)[C@H]2N1 | > 256 µg/mL | > 256 µg/mL | 64 µg/mL (≈ 79.9 µM) | > 256 µg/mL | > 256 µg/mL | > 256 µg/mL | > 256 µg/mL | 64 µg/mL (≈ 79.9 µM) | > 256 µg/mL
